Literature values, collected in patent US20160082141A1, “CHITIN AND ALGINATE COMPOSITE FIBERS” (THE BOARD OF TRUSTEES OF THE UNIVERSITY OF ALABAMA, priority 2013, published 2016).

Details: Dubbs and Gupta 1998

Cc1c(C)c2c(c(C)c1O)CC[C@@](C)(CCC[C@H](C)CCC[C@H](C)CCCC(C)C)O2 [Vitamin E, α-tocopherol]
Solubility in water, mass fraction: 20.9×10^−6 g vitamin E/g water
Solubility in water, mol fraction: 0.87×10^−6 mole vitamin E/mole water
